# Values of other authors, collected in patent US7968723B2, “Compounds, their preparation and use” (High Point Pharmaceuticals, LLC, priority 2004, dated 2011).
# Legend:
# C2C12 muscle cells = settings: in vitro treatment of C2C12 muscle cells; BioChem. Biophys. Acta 2003, 1633, 43-50; Mol. Endocrin. 2003, 17, 2477-2493
# [1] = tested on: high fat diet induced Insulin resistant mice and diabetic ob/ob; settings: PNAS 2003, 100, 15924-15929
structure (smiles),measurement,setting,value
Cc1cc(SCc2sc(-c3ccc(C(F)(F)F)cc3)nc2C)ccc1OCC(=O)O [GW501516],"regulation of genes (TG hydrolysis, FFA oxidation, lipid utilization, energy expenditure, lipid efflux)",C2C12 muscle cells,regulation of genes involved with TG hydrolysis and FFA oxidation
same,insulin sensitivity,[1],improved insulin sensitivity
same,plasma glucose and insulin,[1],lowering of plasma glucose and insulin
